Experimental data reported in patent publication US20230061736A1, “GPR119 AGONISTS” (Kallyope, Inc., priority 2019, published 2023).

Biological target: T1, human GPR119 (hGPR119) (Homo sapiens, UniProt Q8TDV5)
T1 construct: expressed in transfected cells
T1 sequence (Q8TDV5 1-335): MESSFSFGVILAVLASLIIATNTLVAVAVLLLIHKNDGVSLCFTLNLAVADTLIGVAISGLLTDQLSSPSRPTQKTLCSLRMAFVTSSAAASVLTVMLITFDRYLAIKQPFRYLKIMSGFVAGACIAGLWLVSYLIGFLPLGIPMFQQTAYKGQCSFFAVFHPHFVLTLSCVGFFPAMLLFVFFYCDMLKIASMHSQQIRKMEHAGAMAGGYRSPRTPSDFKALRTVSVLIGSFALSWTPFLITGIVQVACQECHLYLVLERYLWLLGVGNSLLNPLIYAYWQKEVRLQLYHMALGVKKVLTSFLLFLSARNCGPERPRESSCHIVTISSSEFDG
Assay: cAMP accumulation assay (cAMP Gs dynamic HTRF kit)
Assay type: cell-based
Conditions: CHO-K1 cells stably expressing hGPR119, 4-parameter fit; for Emax: 1 h, % activity normalized to Max/Min controls; for EC50: cAMP accumulation
Protocol: CHO-K1 cells stably expressing human GPR119 (hGPR119) were prepared by transfection of a GPR119-carrying plasmid using Lipofectamine 2000 (following manufacturer instructions). A stable cell line was established using the limiting dilution method with geneticine selection. Assay-ready frozen (ARF) cells were prepared and used throughout the study.
The assay was performed in a 384-well plate format using the cAMP Gs dynamic assay kit from Cisbio. ARF cells expressing hGPR119 were thawed, washed and then resuspended in cAMP stimulation buffer at a cell density of 1.1×10^6 cells/mL. Cells were plated at a density of ˜10,000 cells/well (9 μL/well). Dose response curves for the tested compounds were prepared in a cAMP stimulation buffer, containing 0.1% Tween 80 at 4 fold the final concentration. The compounds were then transferred to the cell plates using BRAVO (3 μL/well) and the plates were incubated for 60 minutes at 37° C./5% CO2. Detection buffer (10 μL, prepared as described in the cAMP Gs dynamic kit) were added to each well, and the plates were incubated at ambient temperature for 1 hr.
RT-FRET was measured using a ClarioSTAR plate reader, calculating the ratio between emissions at 665 nm and 620 nm (HTRF ratio). The HTRF ratio for positive (Max) and negative (Min) controls were used to normalize HTRF data and generate values for % activity. EC50 and Max activity values were determined using a standard 4-parameter fit.

Compound	Emax [%]	EC50 [nM]
CCCc1cnc(N2CCC(CCCOc3ccc(CC(=O)N4CC(CNC[C@H](O)[C@@H](O)[C@H](O)[C@H](O)CO)C4)c(F)c3)CC2)nc1 [Example 74, 2-(2-fluoro-4-(3-(1-(5-propylpyrimidin-2-yl)piperidin-4-yl)propoxy)phenyl)-1-(3-((((2S,3R,4R,5R)-2,3,4,5,6-pentahydroxyhexyl)amino)methyl)azetidin-1-yl)ethan-1-one]	≥ 130	100 to 1000
O=C(Cc1ccc(OCCCC2CCN(c3ncc(Cl)cn3)CC2)cc1F)N1CC(CO)(CO)C1 [Example 9, 1-[3,3-bis(hydroxymethyl)azetidin-1-yl]-2-[4-[3-[1-(5-chloropyrimidin-2-yl)-4-piperidyl]propoxy]-2-fluoro-phenyl]ethanone]	100 to 130	≤ 100
O=C(NC[C@H](O)[C@@H](O)[C@H](O)[C@H](O)CO)[C@H]1CCN(C(=O)Cc2ccc(OCCCC3CCN(c4ncc(Cl)cn4)CC3)cc2F)C1 [Example 127, (3S)-1-[2-[4-[3-[1-(5-chloropyrimidin-2-yl)-4-piperidyl]propoxy]-2-fluoro-phenyl]acetyl]-N-[(2S,3R,4R,5R)-2,3,4,5,6-pentahydroxyhexyl]pyrrolidine-3-carboxamide]	≥ 130	≤ 100
O=C(Cc1ccc(OCCCC2CCN(c3ncc(Cl)cn3)CC2)cc1F)N1CCC(O)(CNC[C@H](O)[C@H](O)[C@H](O)CO)CC1 [Example 187, 2-[4-[3-[1-(5-chloropyrimidin-2-yl)-4-piperidyl]propoxy]-2-fluoro-phenyl]-1-[4-hydroxy-4-[[[(2S,3S,4R)-2,3,4,5-tetrahydroxypentyl]amino]methyl]-1-piperidyl]ethanone]	100 to 130	≤ 100
O=C(Cc1ccc(OCCCC2CCN(C(=O)OC3(C(F)(F)F)COC3)CC2)cc1F)N1CC(CNC[C@H](O)[C@@H](O)[C@H](O)[C@H](O)CO)C1 [Example 125, [3-(trifluoromethyl)oxetan-3-yl] 4-[3-[3-fluoro-4-[2-oxo-2-[3-[[[(2S,3R,4R,5R)-2,3,4,5,6-pentahydroxyhexyl]amino]methyl]azetidin-1-yl]ethyl]phenoxy]propyl]piperidine-1-carboxylate]	100 to 130	100 to 1000
COCC1(CNC[C@H](O)[C@@H](O)[C@H](O)[C@H](O)CO)CCN(C(=O)Cc2ccc(OCCCC3CCN(c4ncc(Cl)cn4)CC3)cc2F)C1 (stereo partly drawn) [Example 121, 2-[4-[3-[1-(5-chloropyrimidin-2-yl)-4-piperidyl]propoxy]-2-fluoro-phenyl]-1-[3-(methoxymethyl)-3-[[[r(2S,3R,4R,5R)-2,3,4,5,6-pentahydroxyhexyl]amino]methyl]pyrrolidin-1-yl]ethanone]	100 to 130	≤ 100
O=C(NC[C@H](O)[C@@H](O)[C@H](O)[C@H](O)CO)[C@H]1CCN(C(=O)Cc2c(F)cc(OCCCC3CCN(c4ncc(Cl)cn4)CC3)cc2F)C1 [Example 128, (3S)-1-[2-[4-[3-[1-(5-chloropyrimidin-2-yl)-4-piperidyl]propoxy]-2,6-difluoro-phenyl]acetyl]-N-[(2S,3R,4R,5R)-2,3,4,5,6-pentahydroxyhexyl]pyrrolidine-3-carboxamide]	≥ 130	≤ 100
O=C(Cc1ccc(OCCCC2CCN(c3ncc(Cl)cn3)CC2)cc1F)N1CC(CN[C@@H]2C[C@H](O)[C@@H](O)[C@H]2O)C1 (racemic) [Example 49, 2-[4-[3-[1-(5-chloropyrimidin-2-yl)-4-piperidyl]propoxy]-2-fluoro-phenyl]-1-[3-[[[rac-(1R,2S,3R,4S)-2,3,4-trihydroxycyclopentyl]amino]methyl]azetidin-1-yl]ethanone]	≥ 130	100 to 1000
O=C(Cc1ccc(OCCCC2CCN(c3ncc(Cl)cn3)CC2)cc1F)N1CCC(O)(C(=O)NC[C@H](O)[C@@H](O)[C@H](O)[C@H](O)CO)C1 (stereo partly drawn) [Example 181, 1-[2-[4-[3-[1-(5-chloropyrimidin-2-yl)-4-piperidyl]propoxy]-2-fluoro-phenyl]acetyl]-3-hydroxy-N-[(2S,3R,4R,5R)-2,3,4,5,6-pentahydroxyhexyl]pyrrolidine-3-carboxamide]	100 to 130	≤ 100
O=C(Cc1ccc(OCCCC2CCN(c3ncc(Cl)cn3)CC2)cc1F)N1CC[C@@H](CNCC(O)(CO)CO)C1 [Example 99, 2-[4-[3-[1-(5-chloropyrimidin-2-yl)-4-piperidyl]propoxy]-2-fluoro-phenyl]-1-[(3S)-3-[[[2,3-dihydroxy-2-(hydroxymethyl)propyl]amino]methyl]pyrrolidin-1-yl]ethanone]	≥ 130	≤ 100
O=C(NCCO[C@H]1O[C@H](CO)[C@@H](O)[C@H](O)[C@@H]1O)C1CN(C(=O)Cc2ccc(OCCCC3CCN(c4ncc(Cl)cn4)CC3)cc2F)C1 (racemic) [Example 31, 1-[2-[4-[3-[1-(5-chloropyrimidin-2-yl)-4-piperidyl]propoxy]-2-fluoro-phenyl]acetyl]-N-[2-[rac-(2S,3S,4S,5S,6R)-3,4,5-trihydroxy-6-(hydroxymethyl)tetrahydropyran-2-yl]oxyethyl]azetidine-3-carboxamide]	100 to 130	100 to 1000
CC(C)OC(=O)N1CCC2(CC1)CC2CCCOc1cc(F)c(CC(=O)N2CC(CNC[C@H](O)[C@@H](O)[C@H](O)[C@H](O)CO)C2)c(F)c1 (stereo partly drawn) [Example 146, isopropyl 2-[3-[3,5-difluoro-4-[2-oxo-2-[3-[[[(2S,3R,4R,5R)-2,3,4,5,6-pentahydroxyhexyl]amino]methyl]azetidin-1-yl]ethyl]phenoxy]propyl]-6-azaspiro[2.5]octane-6-carboxylate]	100 to 130	100 to 1000
O=C(Cc1ccc(OCCCC2CCN(c3ncc(Cl)cn3)CC2)cc1F)N1CC(CCNC[C@H](O)[C@@H](O)[C@H](O)[C@H](O)CO)C1 [Example 61]	100 to 130	100 to 1000
CCCc1cnc(N2CCC(CCCOc3ccc(CC(=O)N4CC(CNCCNC(=O)NC(CO)(CO)CO)C4)c(F)c3)CC2)nc1 [Example 73, 1-(1,3-dihydroxy-2-(hydroxymethyl)propan-2-yl)-3-(2-(((1-(2-(2-fluoro-4-(3-(1-(5-propylpyrimidin-2-yl)piperidin-4-yl)propoxy)phenyl)acetyl)azetidin-3-yl)methyl)amino)ethyl)urea]	100 to 130	100 to 1000
CCc1cnc(N2CCC(CCOCc3ccc(CC(=O)N4CC(CNC[C@@H](O)[C@H](O)[C@@H](O)[C@@H](O)CO)C4)c(F)c3)CC2)nc1 [Example 88]	50 to 100	1000 to 10000
O=C(Cc1c(F)cc(OCCCCC2CCN(c3ncc(Cl)cn3)CC2)cc1F)N1CC(CNC[C@H](O)[C@@H](O)[C@H](O)[C@H](O)CO)C1 [Example 55, 2-(4-(4-(1-(5-chloropyrimidin-2-yl)piperidin-4-yl)butoxy)-2,6-difluorophenyl)-1-(3-((((2S,3R,4R,5R)-2,3,4,5,6-pentahydroxyhexyl)amino)methyl)azetidin-1-yl)ethan-1-one]	≥ 130	100 to 1000
CCc1cnc(N2CCC(CCOCc3ccc(CC(=O)N4CC(CNC[C@H](O)[C@@H](O)[C@H](O)[C@H](O)CO)C4)cc3F)CC2)nc1 [Example 89]	50 to 100	1000 to 10000
O=C(Cc1ccc(OCCCC2CCN(c3ncc(Cl)cn3)CC2)cc1F)N1CC(CNC[C@@H](O)[C@H](O)[C@H](O)CO)C1 [Example 167, 2-[4-[3-[1-(5-chloropyrimidin-2-yl)-4-piperidyl]propoxy]-2-fluoro-phenyl]-1-[3-[[[(2R,38,4R)-2,3,4,5-tetrahydroxypentyl]amino]methyl]azetidin-1-yl]ethanone]	100 to 130	≤ 100
COCc1cnc(N2CCC(CCCOc3ccc(CC(=O)N4CC(CNCC[C@@H](O)C[C@@H](O)CC(=O)O)C4)c(F)c3)CC2)nc1 [Example 82, (3R,5R)-7-[[1-[2-[2-fluoro-4-[3-[1-[5-(methoxymethyl)pyrimidin-2-yl]-4-piperidyl]propoxy]phenyl]acetyl]azetidin-3-yl]methylamino]-3,5-dihydroxy-heptanoicacid]	50 to 100	100 to 1000
O=C(Cc1ccc(OCCCC2CCN(c3ncc(Cl)cn3)CC2)cc1F)N1CC(CN2C[C@@H](O)[C@@H](O)C2)C1 [Example 48, 2-[4-[3-[1-(5-chloropyrimidin-2-yl)-4-piperidyl]propoxy]-2-fluoro-phenyl]-1-[3-[[rac-(3S,4R)-3,4-dihydroxypyrrolidin-1-yl]methyl]azetidin-1-yl]ethanone]	100 to 130	≤ 100
O=C(Cc1ccc(OCCCC2CCN(c3ncc(Cl)cn3)CC2)cc1F)NCCCCS(=O)(=O)O [Example 12, 4-[[2-[4-[3-[1-(5-chloropyrimidin-2-yl)-4-piperidyl]propoxy]-2-fluoro-phenyl]acetyl]amino]butane-1-sulfonic acid]	≥ 130	1000 to 10000
